Legend:
MDA-MB-231 = test: Antiproliferative activity against human MDA-MB-231 cells by MTT assay; assay type: functional, cell-based
MCF7 = test: Antiproliferative activity against human MCF7 cells by MTT assay; assay type: functional, cell-based

SMILES	IC50 (MDA-MB-231)	IC50 (MCF7)
C=C(C1[C@H](OC(C)=O)C(=O)[C@@]2(C)O[C@H]2[C@@H]1OC(C)=O)[C@H](CC=C(C)C)OC(=O)/C(C)=C\C (stereo partly specified)	> 10 µM	> 10 µM
C=C(C1C[C@@H]2O[C@]2(C)C(=O)[C@H]1OC(=O)/C(C)=C\C)[C@H](CC=C(C)C)OC(=O)/C(C)=C\C (stereo partly specified)	> 10 µM	> 10 µM
C=C1[C@H]2[C@@H](C(C(C)OC)C(=O)[C@H]2OC(=O)C(C)CC)[C@H](C(C)C)C[C@H]1OC(=O)/C=C(\C)CC (stereo partly specified)	> 90 µM	
C=C1[C@@H]2C(O)C(=O)/C(=C\C)[C@H]2[C@H](C(C)C)C[C@H]1OC(=O)/C=C(\C)CC (stereo partly specified)	11.3 µM	
C=C(C1C[C@@H]2O[C@]2(C)C(=O)[C@H]1OC(C)=O)[C@H](CC=C(C)C)OC(=O)/C(C)=C\C (stereo partly specified)	> 10 µM	> 10 µM
C/C=C1\C(=O)[C@@H](OC(=O)C(C)CC)[C@@H]2[C@@H]1[C@H](C(C)C)C[C@@H](OC(=O)/C=C(\C)CC)C21CO1 (stereo partly specified)	8.6 µM	17.6 µM
C=C1[C@H](OC(=O)/C=C(\C)CC)C[C@@H](C(C)C)[C@@H]2/C(=C\C)C(=O)C[C@@H]12	> 10 µM	> 10 µM
C=C1[C@H](OC(=O)/C=C(\C)CC)C[C@@H](C(C)C)[C@@H]2/C(=C/C)C(=O)C[C@@H]12	> 10 µM	> 10 µM
C=C1[C@H]2[C@@H]([C@@H]([C@H](C)OC(C)=O)C(=O)[C@H]2OC(=O)C(C)CC)[C@H](C(C)C)C[C@H]1OC(=O)/C=C(\C)CC (stereo partly specified)	7.3 µM	12.8 µM
C/C=C1\C(=O)[C@@H](OC(=O)C(C)CC)[C@@H]2[C@@H]1[C@H](C(C)C)C[C@@H](OC(=O)/C=C(\C)CC)C2(O)CN=[N+]=[N-] (stereo partly specified)	5.5 µM	14.1 µM
C=C1[C@@H]2C(O)C(=O)C(C(C)OC)[C@H]2[C@H](C(C)C)C[C@H]1OC(=O)/C=C(\C)CC (stereo partly specified)	> 90 µM	
C=C1[C@H](OC(=O)/C=C(\C)CC)C[C@@H](C(C)C)[C@@H]2[C@@H]([C@H](C)OC(C)=O)C(=O)C[C@@H]12	> 10 µM	> 10 µM

From ChEMBL document CHEMBL4665786, “Cellular Target Proteome in Breast Cancer Cells of an Oplopane Sesquiterpenoid Isolated from Tussilago farfara” (J Nat Prod, 2020)
